# Source: PubChem BioAssay AID256 (DTP/NCI, 2004)
# Inconclusive results and toxic doses are left out.
# Test system: CD2F1 mice, L1210 leukemia ip, survival T/C
# Assay: NCI In Vivo Anticancer Drug Screen. Data for tumor model L1210 Leukemia (intraperitoneal) in CD2F1 (CDF1) mice
# Details: endpoint: mean survival time, higher = longer survival
# How it was run: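 Transplantable tumor in mice; compound-treated vs vehicle-treated groups. Read-out = treated/control ratio of the measured endpoint.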
# [1] = dose: 100.0 mg/kg/injection, schedule: Q04DX003 (ip), vehicle: Klucel (hydroxypropylcellulose) (HPC)
# [2] = dose: 200.0 mg/kg/injection, schedule: Q04DX003 (ip), vehicle: Klucel (hydroxypropylcellulose) (HPC)
# [3] = dose: 100.0 mg/kg/injection, schedule: Q04DX003 (ip), vehicle: saline with Tween-80
# [4] = dose: 200.0 mg/kg/injection, schedule: Q04DX003 (ip), vehicle: saline with Tween-80
# [5] = dose: 400.0 mg/kg/injection, schedule: Q04DX003 (ip), vehicle: saline with Tween-80
# [6] = dose: 150.0 mg/kg/injection, schedule: Q01DX001 (ip), vehicle: saline
# [7] = dose: 100.0 mg/kg/injection, schedule: Q01DX001 (ip), vehicle: saline
# [8] = dose: 200.0 mg/kg/injection, schedule: Q01DX001 (ip), vehicle: saline
# [9] = dose: 100.0 mg/kg/injection, schedule: Q04DX002 (ip), vehicle: saline with Tween-80
# [10] = dose: 200.0 mg/kg/injection, schedule: Q04DX002 (ip), vehicle: saline with Tween-80
# [11] = dose: 400.0 mg/kg/injection, schedule: Q04DX002 (ip), vehicle: saline with Tween-80
# [12] = dose: 100.0 mg/kg/injection, schedule: Q04DX003 (ip), vehicle: other
# [13] = dose: 200.0 mg/kg/injection, schedule: Q04DX003 (ip), vehicle: other
structure (smiles),measurement,setting,value
CN(CCCN(C)N=Nc1ccccc1C(=O)O)N=Nc1ccccc1C(=O)O,T/C,[1],102 % of control
same,T/C,[2],100 % of control
same,T/C,"dose: 400.0 mg/kg/injection, schedule: Q04DX003 (ip), vehicle: Klucel (hydroxypropylcellulose) (HPC)",98 % of control
CCCCOC(=O)C(N)=O,T/C,"dose: 100.0 mg/kg/injection, schedule: Q01DX009 (ip), vehicle: Klucel (hydroxypropylcellulose) (HPC)",94 % of control
same,T/C,[3],97 % of control
same,T/C,"dose: 200.0 mg/kg/injection, schedule: Q01DX009 (ip), vehicle: Klucel (hydroxypropylcellulose) (HPC)",100 % of control
same,T/C,[4],100 % of control
same,T/C,"dose: 400.0 mg/kg/injection, schedule: Q01DX009 (ip), vehicle: Klucel (hydroxypropylcellulose) (HPC)",93 % of control
same,T/C,[5],102 % of control
c1coc(CNC2=NCCO2)c1,T/C,"dose: 100.0 mg/kg/injection, schedule: Q01DX001 (ip), vehicle: other",95 % of control
same,T/C,"dose: 200.0 mg/kg/injection, schedule: Q01DX001 (ip), vehicle: other",103 % of control
same,T/C,"dose: 400.0 mg/kg/injection, schedule: Q01DX001 (ip), vehicle: other",90 % of control
O=C(c1ccccc1)C1OC1(CCl)c1ccccc1 (stereo not given),T/C,"dose: 100.0 mg/kg/injection, schedule: Q01DX001 (ip), vehicle: saline with Tween-80",106 % of control
same,T/C,"dose: 200.0 mg/kg/injection, schedule: Q01DX001 (ip), vehicle: saline with Tween-80",90 % of control
same,T/C,"dose: 400.0 mg/kg/injection, schedule: Q01DX001 (ip), vehicle: saline with Tween-80",86 % of control
CN(C)CC1CCCCC(Br)C1=O (stereo not given),T/C,"dose: 75.0 mg/kg/injection, schedule: Q01DX001 (ip), vehicle: saline",98 % of control
same,T/C,[6],107 % of control
same,T/C,"dose: 300.0 mg/kg/injection, schedule: Q01DX001 (ip), vehicle: saline",117 % of control
CC(=O)Oc1c(Br)c(-c2cc([N+](=O)[O-])c(C)c([N+](=O)[O-])c2C)c(OC(C)=O)c(Br)c1-c1cc([N+](=O)[O-])c(C)c([N+](=O)[O-])c1C,T/C,[3],93 % of control
same,T/C,[4],93 % of control
same,T/C,[5],87 % of control
CCOP(=O)(NCc1ccco1)OCC,T/C,"dose: 50.0 mg/kg/injection, schedule: Q01DX001 (ip), vehicle: carboxymethylcellulose (CMC)",106 % of control
same,T/C,"dose: 100.0 mg/kg/injection, schedule: Q01DX001 (ip), vehicle: carboxymethylcellulose (CMC)",112 % of control
CCN=C(NCC)S(=O)O,T/C,"dose: 100.0 mg/kg/injection, schedule: Q01DX009 (ip), vehicle: saline",90 % of control
same,T/C,"dose: 200.0 mg/kg/injection, schedule: Q01DX009 (ip), vehicle: saline",97 % of control
same,T/C,"dose: 400.0 mg/kg/injection, schedule: Q01DX009 (ip), vehicle: saline",103 % of control
CN1CCC(CNC(=O)CCCCCCCCC(=O)NCC2(c3ccccc3)CCN(C)CC2)(c2ccccc2)CC1,T/C,"dose: 1.25 mg/kg/injection, schedule: Q04DX003 (ip), vehicle: saline with Tween-80",95 % of control
same,T/C,"dose: 2.5 mg/kg/injection, schedule: Q04DX003 (ip), vehicle: saline with Tween-80",94 % of control
Cc1occc1S(N)(=O)=O,T/C,"dose: 75.0 mg/kg/injection, schedule: Q04DX002 (ip), vehicle: saline with Tween-80",120 % of control
Cn1nc(C#N)c2ccccc21,T/C,[7],100 % of control
same,T/C,[8],102 % of control
same,T/C,"dose: 400.0 mg/kg/injection, schedule: Q01DX001 (ip), vehicle: saline",103 % of control
[Cl][Pt+2][Cl].[NH-]c1cccc(I)c1.[NH-]c1cccc(I)c1,T/C,"dose: 3.12 mg/kg/injection, schedule: Q04DX003 (ip), vehicle: distilled water + Tween-80",103 % of control
same,T/C,"dose: 6.25 mg/kg/injection, schedule: Q04DX003 (ip), vehicle: distilled water + Tween-80",110 % of control
same,T/C,"dose: 12.5 mg/kg/injection, schedule: Q04DX003 (ip), vehicle: distilled water + Tween-80",108 % of control
same,T/C,"dose: 25.0 mg/kg/injection, schedule: Q04DX003 (ip), vehicle: distilled water + Tween-80",106 % of control
same,T/C,"dose: 50.0 mg/kg/injection, schedule: Q04DX003 (ip), vehicle: distilled water + Tween-80",112 % of control
same,T/C,"dose: 100.0 mg/kg/injection, schedule: Q04DX003 (ip), vehicle: distilled water + Tween-80",112 % of control
COCNC(=S)N/N=C/c1ccc(O)cn1,T/C,[9],95 % of control
same,T/C,[10],98 % of control
same,T/C,[11],102 % of control
CCCCN=C(C(=NCCCC)N(CCCC)CCCC)N(CCCC)CCCC,T/C,[9],101 % of control
same,T/C,[10],89 % of control
same,T/C,[11],98 % of control
OC(c1ccccc1)(c1ccccc1)c1ccccc1 (tested in a mixture with another compound),T/C,[3],98 % of control
same,T/C,[4],91 % of control
same,T/C,[5],97 % of control
C=CCSc1cccc(C)c1,T/C,[7],96 % of control
same,T/C,[8],97 % of control
CN(N=O)C(=O)NC1C(CO)OC(n2ccc(=O)[nH]c2=O)C1O (stereo not given),T/C,"dose: 13.0 mg/kg/injection, schedule: Q01DX001 (ip), vehicle: saline",105 % of control
same,T/C,"dose: 20.0 mg/kg/injection, schedule: Q01DX001 (ip), vehicle: saline",107 % of control
same,T/C,"dose: 30.0 mg/kg/injection, schedule: Q01DX001 (ip), vehicle: saline",110 % of control
same,T/C,"dose: 44.0 mg/kg/injection, schedule: Q01DX001 (ip), vehicle: saline",111 % of control
same,T/C,"dose: 67.0 mg/kg/injection, schedule: Q01DX001 (ip), vehicle: saline",107 % of control
same,T/C,[7],122 % of control
same,T/C,[6],121 % of control
CN(C)C(=S)SCc1ccc(Cl)cc1,T/C,[12],93 % of control
same,T/C,[13],102 % of control
same,T/C,"dose: 400.0 mg/kg/injection, schedule: Q04DX003 (ip), vehicle: other",100 % of control
CCCCCCCCCCCCCCCCCCc1ccc(O)cc1O,T/C,"dose: 100.0 mg/kg/injection, schedule: Q01DX009 (ip), vehicle: saline with Tween-80",96 % of control
same,T/C,"dose: 200.0 mg/kg/injection, schedule: Q01DX009 (ip), vehicle: saline with Tween-80",101 % of control
same,T/C,"dose: 400.0 mg/kg/injection, schedule: Q01DX009 (ip), vehicle: saline with Tween-80",104 % of control
[Co].c1ccc2c3[n-]c(c2c1)/N=c1\[n-]/c(c2ccccc12)=N\c1[n-]c(c2ccccc12)/N=c1\[n-]/c(c2ccccc12)=N\3,T/C,"dose: 25.0 mg/kg/injection, schedule: Q04DX002 (ip), vehicle: saline with Tween-80",90 % of control
same,T/C,"dose: 50.0 mg/kg/injection, schedule: Q04DX002 (ip), vehicle: saline with Tween-80",93 % of control
same,T/C,[9],90 % of control
CCN(CC)CC(COC)Oc1cc(C)ccc1C(C)C (stereo not given),T/C,[1],92 % of control
same,T/C,[2],93 % of control
Cc1c(N)c(=O)n(-c2ccccc2)n1C,T/C,"dose: 100.0 mg/kg/injection, schedule: Q04DX003 (ip), vehicle: saline",97 % of control
same,T/C,"dose: 200.0 mg/kg/injection, schedule: Q04DX003 (ip), vehicle: saline",103 % of control
same,T/C,"dose: 400.0 mg/kg/injection, schedule: Q04DX003 (ip), vehicle: saline",101 % of control
C/C=C1\OC(n2cnc3c(N)ncnc32)C(O)C1O (stereo not given),T/C,"dose: 12.5 mg/kg/injection, schedule: Q01DX005 (ip), vehicle: distilled water + Tween-80",101 % of control
same,T/C,"dose: 25.0 mg/kg/injection, schedule: Q01DX005 (ip), vehicle: distilled water + Tween-80",109 % of control
same,T/C,"dose: 50.0 mg/kg/injection, schedule: Q01DX005 (ip), vehicle: distilled water + Tween-80",113 % of control
same,T/C,"dose: 50.0 mg/kg/injection, schedule: Q01DX009 (ip), vehicle: distilled water + Tween-80",112 % of control
same,T/C,"dose: 100.0 mg/kg/injection, schedule: Q01DX005 (ip), vehicle: distilled water + Tween-80",119 % of control
same,T/C,"dose: 100.0 mg/kg/injection, schedule: Q01DX009 (ip), vehicle: distilled water + Tween-80",124 % of control
same,T/C,"dose: 200.0 mg/kg/injection, schedule: Q01DX009 (ip), vehicle: distilled water + Tween-80",157 % of control
O=C1C=Cc2ccccc2/C1=C/c1nc(/C=C/c2ccccc2)oc1O,T/C,[9],117 % of control
same,T/C,[10],113 % of control
same,T/C,[11],105 % of control
O=C(O)C1CCCCC1C(=O)O.[NH-]C1CCCCC1[NH-].[Pt+2] (stereo not given),T/C,"dose: 3.13 mg/kg/injection, schedule: Q04DX003 (ip), vehicle: other",106 % of control
same,T/C,"dose: 6.25 mg/kg/injection, schedule: Q04DX003 (ip), vehicle: other",106 % of control
same,T/C,"dose: 12.5 mg/kg/injection, schedule: Q04DX003 (ip), vehicle: other",116 % of control
same,T/C,[12],187 % of control
same,T/C,[13],168 % of control
